According to PubChem BioAssay AID256 (DTP/NCI, 2004):
Values joined by “and” are separate entries in the source; they are usually repeats but may differ in a detail not shown here. Identical values can stand only once. Toxic doses and inconclusive results are not listed. The calls were made as follows: active = survival T/C of 150% or more; inactive = T/C below 125% in these data.

Tested on: CD2F1 mice, L1210 leukemia ip, survival T/C
Experiment: NCI In Vivo Anticancer Drug Screen. Data for tumor model L1210 Leukemia (intraperitoneal) in CD2F1 (CDF1) mice
Settings: endpoint: mean survival time, higher = longer survival
Experimental: The antitumor activity of compounds was measured in mice bearing transplantable tumors. Survival or tumor size were measured and the results are expressed as the measurement made in the treated group (T) divided by the measurement made in the vehicle treated control group (C). The tumor model used in this assay is L1210 Leukemia (intraperitoneal) in CD2F1 (CDF1) mice

[1] = dose: 100.0 mg/kg/injection, schedule: Q01DX009 (ip), vehicle: saline with Tween-80
[2] = dose: 100.0 mg/kg/injection, schedule: Q04DX003 (ip), vehicle: saline with Tween-80
[3] = dose: 200.0 mg/kg/injection, schedule: Q01DX009 (ip), vehicle: saline with Tween-80
[4] = dose: 200.0 mg/kg/injection, schedule: Q04DX003 (ip), vehicle: saline with Tween-80
[5] = dose: 400.0 mg/kg/injection, schedule: Q01DX009 (ip), vehicle: saline with Tween-80
[6] = dose: 400.0 mg/kg/injection, schedule: Q04DX003 (ip), vehicle: saline with Tween-80
[7] = dose: 100.0 mg/kg/injection, schedule: Q04DX002 (ip), vehicle: saline with Tween-80
[8] = dose: 200.0 mg/kg/injection, schedule: Q04DX002 (ip), vehicle: saline with Tween-80

Measured: T/C

O=C(O)CCC(=O)O
inactive: dose: 10.0 mg/kg/injection, schedule: Q01DX009 (ip), vehicle: saline 104 % of control | dose: 10.0 mg/kg/injection, schedule: Q01DX009 (ip), vehicle: water 95 % of control and 98 % of control | dose: 20.0 mg/kg/injection, schedule: Q01DX001 (ip), vehicle: saline 104 % of control | dose: 20.0 mg/kg/injection, schedule: Q01DX001 (ip), vehicle: water 95 % of control and 98 % of control | dose: 20.0 mg/kg/injection, schedule: Q01DX009 (ip), vehicle: saline 97 % of control | dose: 20.0 mg/kg/injection, schedule: Q01DX009 (ip), vehicle: water 101 % of control and 98 % of control | dose: 20.0 mg/kg/injection, schedule: Q04DX003 (ip), vehicle: saline 96 % of control | dose: 20.0 mg/kg/injection, schedule: Q04DX003 (ip), vehicle: water 98 % of control | dose: 40.0 mg/kg/injection, schedule: Q01DX001 (ip), vehicle: saline 104 % of control | dose: 40.0 mg/kg/injection, schedule: Q01DX001 (ip), vehicle: water 103 % of control and 101 % of control | dose: 40.0 mg/kg/injection, schedule: Q01DX009 (ip), vehicle: saline 104 % of control | dose: 40.0 mg/kg/injection, schedule: Q01DX009 (ip), vehicle: water 97 % of control and 95 % of control | dose: 40.0 mg/kg/injection, schedule: Q04DX003 (ip), vehicle: saline 102 % of control | dose: 40.0 mg/kg/injection, schedule: Q04DX003 (ip), vehicle: water 96 % of control | dose: 80.0 mg/kg/injection, schedule: Q01DX001 (ip), vehicle: saline 103 % of control | dose: 80.0 mg/kg/injection, schedule: Q01DX001 (ip), vehicle: water 97 % of control | dose: 80.0 mg/kg/injection, schedule: Q01DX009 (ip), vehicle: saline 104 % of control | dose: 80.0 mg/kg/injection, schedule: Q01DX009 (ip), vehicle: water 95 % of control and 97 % of control | dose: 80.0 mg/kg/injection, schedule: Q04DX003 (ip), vehicle: saline 98 % of control | dose: 80.0 mg/kg/injection, schedule: Q04DX003 (ip), vehicle: water 91 % of control and 96 % of control | dose: 160.0 mg/kg/injection, schedule: Q01DX001 (ip), vehicle: saline 101 % of control | dose: 160.0 mg/kg/injection, schedule: Q01DX001 (ip), vehicle: water 98 % of control and 93 % of control | dose: 160.0 mg/kg/injection, schedule: Q01DX009 (ip), vehicle: saline 98 % of control | dose: 160.0 mg/kg/injection, schedule: Q01DX009 (ip), vehicle: water 98 % of control and 90 % of control | dose: 160.0 mg/kg/injection, schedule: Q04DX003 (ip), vehicle: saline 101 % of control | dose: 160.0 mg/kg/injection, schedule: Q04DX003 (ip), vehicle: water 98 % of control and 93 % of control | dose: 320.0 mg/kg/injection, schedule: Q01DX001 (ip), vehicle: saline 106 % of control | dose: 320.0 mg/kg/injection, schedule: Q01DX001 (ip), vehicle: water 101 % of control | dose: 320.0 mg/kg/injection, schedule: Q04DX003 (ip), vehicle: saline 98 % of control | dose: 320.0 mg/kg/injection, schedule: Q04DX003 (ip), vehicle: water 87 % of control and 98 % of control | dose: 640.0 mg/kg/injection, schedule: Q01DX001 (ip), vehicle: saline 103 % of control | dose: 640.0 mg/kg/injection, schedule: Q01DX001 (ip), vehicle: water 101 % of control

O=c1[nH]c2ccccc2c(=O)c2ccccc12
inactive: [1] 90 % of control | [2] 101 % of control | [3] 94 % of control | [4] 97 % of control | [5] 107 % of control | [6] 101 % of control

CC(C)(C)/C=N/Nc1ccc([N+](=O)[O-])cc1[N+](=O)[O-]
inactive: dose: 100.0 mg/kg/injection, schedule: Q04DX003 (ip), vehicle: acetone 97 % of control | dose: 200.0 mg/kg/injection, schedule: Q04DX003 (ip), vehicle: acetone 101 % of control | dose: 400.0 mg/kg/injection, schedule: Q04DX003 (ip), vehicle: acetone 97 % of control

O=C1OC(C(=O)O)Cc2ccccc21 (stereo unspecified)
inactive: dose: 50.0 mg/kg/injection, schedule: Q01DX001 (ip), vehicle: saline 102 % of control | dose: 100.0 mg/kg/injection, schedule: Q01DX001 (ip), vehicle: saline 100 % of control | dose: 200.0 mg/kg/injection, schedule: Q01DX001 (ip), vehicle: saline 110 % of control | dose: 400.0 mg/kg/injection, schedule: Q01DX001 (ip), vehicle: saline 103 % of control

CN(C)C(=O)C1C2CCCC(CC2)C1C(=O)N(C)C (stereo unspecified)
inactive: dose: 100.0 mg/kg/injection, schedule: Q04DX002 (ip), vehicle: saline 100 % of control | dose: 200.0 mg/kg/injection, schedule: Q04DX002 (ip), vehicle: saline 91 % of control | dose: 400.0 mg/kg/injection, schedule: Q04DX002 (ip), vehicle: saline 95 % of control

CCOc1ccc(-n2c(O)c(N=Nc3ccccc3)c(=O)n(-c3ccc(OC)cc3)c2=S)cc1
inactive: dose: 100.0 mg/kg/injection, schedule: Q01DX001 (ip), vehicle: saline with Tween-80 101 % of control | dose: 200.0 mg/kg/injection, schedule: Q01DX001 (ip), vehicle: saline with Tween-80 92 % of control | dose: 400.0 mg/kg/injection, schedule: Q01DX001 (ip), vehicle: saline with Tween-80 90 % of control

COC(=O)C(CCCCN)NS(=O)(=O)c1ccccc1 (stereo unspecified)
inactive: [1] 96 % of control | [2] 109 % of control | [3] 100 % of control | [4] 91 % of control | [5] 96 % of control | [6] 103 % of control

C=CC1CC(=O)N1 (stereo unspecified)
inactive: dose: 75.0 mg/kg/injection, schedule: Q01DX009 (ip), vehicle: saline 102 % of control | dose: 75.0 mg/kg/injection, schedule: Q04DX003 (ip), vehicle: saline 97 % of control | dose: 150.0 mg/kg/injection, schedule: Q01DX009 (ip), vehicle: saline 103 % of control | dose: 150.0 mg/kg/injection, schedule: Q04DX003 (ip), vehicle: saline 101 % of control | dose: 300.0 mg/kg/injection, schedule: Q01DX009 (ip), vehicle: saline 103 % of control | dose: 300.0 mg/kg/injection, schedule: Q04DX003 (ip), vehicle: saline 95 % of control

[Co+3].[NH-]CC[NH-].[NH-]CC[NH-].[NH-]CC[NH-].[O-][I+2]([O-])O
inactive: [7] 100 % of control | [8] 96 % of control

O=CNNC=O
inactive: [1] 94 % of control | [2] 107 % of control | [3] 92 % of control | [4] 96 % of control | [5] 97 % of control | [6] 100 % of control

CS(=O)(=O)OC1CCS(=O)(=O)c2ccccc21 (stereo unspecified)
inactive: dose: 100.0 mg/kg/injection, schedule: Q01DX001 (ip), vehicle: carboxymethylcellulose (CMC) 97 % of control | dose: 200.0 mg/kg/injection, schedule: Q01DX001 (ip), vehicle: carboxymethylcellulose (CMC) 97 % of control | dose: 400.0 mg/kg/injection, schedule: Q01DX001 (ip), vehicle: carboxymethylcellulose (CMC) 97 % of control

Cc1cc(S(=O)(=O)O)c(N)cc1Cl
inactive: [1] 106 % of control | [3] 92 % of control | [5] 103 % of control

Clc1ccc(SCNc2ccccc2Cl)cc1
inactive: [7] 100 % of control | [8] 100 % of control | dose: 400.0 mg/kg/injection, schedule: Q04DX002 (ip), vehicle: saline with Tween-80 100 % of control

O=NN(CCCCCSCCCl)C(=O)NC1CCCCC1
inactive: dose: 6.25 mg/kg/injection, schedule: Q01DX001 (ip), vehicle: distilled water + Tween-80 101 % of control | dose: 12.5 mg/kg/injection, schedule: Q01DX001 (ip), vehicle: distilled water + Tween-80 101 % of control | dose: 25.0 mg/kg/injection, schedule: Q01DX001 (ip), vehicle: distilled water + Tween-80 107 % of control | dose: 50.0 mg/kg/injection, schedule: Q01DX001 (ip), vehicle: distilled water + Tween-80 104 % of control | dose: 100.0 mg/kg/injection, schedule: Q01DX001 (ip), vehicle: distilled water + Tween-80 104 % of control | dose: 200.0 mg/kg/injection, schedule: Q01DX001 (ip), vehicle: distilled water + Tween-80 108 % of control | dose: 400.0 mg/kg/injection, schedule: Q01DX001 (ip), vehicle: distilled water + Tween-80 118 % of control

Cc1cccc(SC(=O)Nc2ccc(Cl)cc2C)c1
inactive: [1] 95 % of control | [3] 95 % of control

CCOC(C[N+](C)(C)C)OCC
inactive: dose: 50.0 mg/kg/injection, schedule: Q01DX009 (ip), vehicle: saline with Tween-80 100 % of control | [1] 94 % of control
